Results from patent US20230192657A1, “1,2,4-TRIAZOLINONE CB1 INHIBITORS” (Goldfinch Bio, Inc., priority 2020, published 2023).

Each compound was assayed against CB1 receptor (Homo sapiens, UniProt P21554) (assay: CB1 cAMP Antagonist Assay (LANCE Ultra cAMP kit)). Details: Flp-In CHO cells stably expressing the CB1 receptor; forskolin and CP55940 agonist at EC90; cAMP FRET readout.
Format: cell-based
Excerpt: CB1 cAMP Antagonist Assay
LANCE Ultra cAMP kit (Perkin Elmer) was used to quantitate the amount of 3′,5′-cyclic adenosine monophosphate (cAMP) produced in Flp-In CHO (Invitrogen) cells stably expressing the CB1 receptor.
Forskolin was initially titrated to determine the response of the cells. The EC90 of forskolin was used for compound testing. CP55940 was titrated and used with EC90 of forskolin to determine the level of agonist stimulation. EC90 of the agonist was used for subsequent compound testing.
Forskolin (Sigma), CP55940 (Cayman Chemicals), and AM251 (MCE) were diluted in 100% DMSO, starting at 100 mM, 1 mM, and 1 mM respectively, in 3-fold serial dilutions. Test compounds were diluted in 100% DMSO starting from 10 mM, 3-fold dilutions. The cAMP assay buffer contains 1x Hank’s Buffered Saline Solution with Ca^2+ and Mg^2+ (Invitrogen), 5.3 mM HEPES (Invitrogen), 0.05% BSA, 0.5 mM IBMX (Sigma).
For all assays, cells were harvested, counted, and diluted in cAMP assay buffer to 1× 10^5 cells/mL. Only cells with viability >85% were used for the assay. Cells were seeded at 1000 cells/well in 384-well plates and 10 nL/well AM251 or test compound was added and incubated at 37° C. for 10 min. […] To detect the amount of cAMP produced, 5 µL of a 100x diluted stock of Eu-cAMP tracer and 5 µL of 200x diluted stock of Ulight-anti-cAMP were added to each well, and the plate incubated at 25° C. for 15 min. The FRET signal was read using an EnVision microplate reader (λex=320 nm, λem=615 nm and 665 nm).
The IC50 is determined by fitting the percentage of inhibition as a function of compound concentrations with the Hill equation, using a 4-parameter fit in either XLfit or GraphPad Prism.

Sequence of CB1 receptor (P21554 whole entry): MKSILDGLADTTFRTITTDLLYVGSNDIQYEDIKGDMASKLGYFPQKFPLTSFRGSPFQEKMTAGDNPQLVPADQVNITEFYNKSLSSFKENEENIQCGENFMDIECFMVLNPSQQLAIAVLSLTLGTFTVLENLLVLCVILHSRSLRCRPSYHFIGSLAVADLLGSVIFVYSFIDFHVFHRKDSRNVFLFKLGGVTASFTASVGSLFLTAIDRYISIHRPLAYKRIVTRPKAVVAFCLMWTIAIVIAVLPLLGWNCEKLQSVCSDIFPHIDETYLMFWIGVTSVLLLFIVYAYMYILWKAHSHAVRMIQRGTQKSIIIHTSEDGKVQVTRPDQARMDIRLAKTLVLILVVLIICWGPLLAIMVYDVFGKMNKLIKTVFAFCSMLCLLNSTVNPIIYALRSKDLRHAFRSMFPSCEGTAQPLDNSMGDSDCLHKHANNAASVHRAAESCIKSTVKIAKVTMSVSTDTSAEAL

| SMILES | IC50 |
| --- | --- |
| O=C(O)CCn1c(N2C[C@@]3(CCc4ccccc43)C(c3ccc(Cl)cc3)=N2)nn(-c2ccc(Cl)cc2)c1=O [Compound 130] | > 5 µM |
| Cn1c(N2CC(c3ccccc3)C(c3ccc(Cl)cc3)=N2)nn(Cc2ccc(C(=O)NCCO)cc2)c1=O (stereo not shown) [Compound 173] | 1 to 5 µM |
| Cn1c(N2C[C@H](c3ccccc3)C(c3ccc(Cl)cc3)=N2)nn(-c2ccc(CN3CCOCC3)cc2)c1=O [Compound 144, 3-[(4S)(4-Chlorophenyl)-4-Phenyl-4,5-Dihydro-1H-Pyrazol-1-yl]-4-Methyl-1-[4-[(Morpholin-4-yl)Methyl] Phenyl]-4,5-Dihydro-1H-1,2,4-Triazol-5-One] | 0.1 to 1 µM |
| O=C(O)CCn1c(N2C[C@]3(CCc4ccccc43)C(c3ccc(Cl)cc3)=N2)nn(-c2ccc(Cl)cc2)c1=O [Compound 129] | > 5 µM |
| Cn1c(N2CC(c3ccccc3)C(c3ccc(Cl)cc3)=N2)nn(Cc2cccc(C(=O)O)c2)c1=O (stereo not shown) [Compound 186] | > 5 µM |
| NC(=O)Cn1c(N2C[C@@]3(CCc4ccccc43)C(c3ccc(Cl)cc3)=N2)nn(Cc2ccc(Cl)cc2)c1=O [Compound 125, 2-[3-[(1S)-3-(4-chlorophenyl)-1,2,3,5-tetrahydrospiro[indene-1,4-pyrazol]-1-yl]-1-[(4-chlorophenyl)methyl]-5-oxo-4,5-dihydro-1H-1,2,4-triazol-4-yl]acetamide] | 1 to 5 µM |
| COc1ccc(Cn2nc(N3C[C@@H](c4ccccc4)C(c4ccc(Cl)cc4)=N3)n(C)c2=O)cc1 [Compound 142] | 1 to 5 µM |
| Cn1c(N2C[C@H](c3ccccc3)C(c3ccc(Cl)cc3)=N2)nn(-c2ccc(Cl)cc2)c1=O [Compound 101, 1-(4-chlorophenyl)-3-[(4S)-3-(4-chlorophenyl)-4-phenyl-4,5-dihydro-1H-pyrazol-1-yl]-4-methyl-4,5-dihydro-1H-1,2,4-triazol-5-one] | < 0.1 µM |
| Cn1nc(N2CC(c3ccccc3)C(c3ccc(Cl)cc3)=N2)n(Cc2ccccc2)c1=O (stereo not shown) [Compound 193, 4-benzyl-5-[3-(4-chlorophenyl)-4-phenyl-4,5-dihydropyrazol-1-yl]-2-methyl-1,2,4-triazol-3-one] | 0.1 to 1 µM |
| CCOC(=O)Cn1c(N2C[C@@H](c3ccccc3)C(c3ccc(Cl)cc3)=N2)nn(-c2ccc(Cl)cc2)c1=O [Compound 105, ethyl 2-[1-(4-chlorophenyl)-3-[(4R)-3-(4-chlorophenyl)-4-phenyl-4,5-dihydro-1H-pyrazol-1-yl]-5-oxo-4,5-dihydro-1H-1,2,4-triazol-4-yl]acetate] | < 0.1 µM |

Results, then the compound that gave them:

| IC50 | SMILES |
| --- | --- |
| 1 to 5 µM | Cc1ccc(Cn2nc(N3C[C@@H](c4ccccc4)C(c4ccc(Cl)cc4)=N3)n(C)c2=O)cc1 [Compound 161] |
| > 5 µM | Cn1c(N2C[C@@H](c3ccccc3)C(c3ccc(Cl)cc3)=N2)nn(-c2ccc(CN3CCOCC3)cc2)c1=O [Compound 146] |
| > 5 µM | Cn1c(N2C[C@@H](c3ccccc3)C(c3ccc(Cl)cc3)=N2)nn(CCc2ccc(C(N)=O)cc2)c1=O [Compound 212] |
| > 5 µM | O=C(O)CCn1c(N2C[C@@]3(CCc4ccccc43)C(c3ccc(Cl)cc3)=N2)nn(Cc2ccc(Cl)cc2)c1=O [Compound 131] |
| < 0.1 µM | C[C@@H](C(N)=O)n1c(N2C[C@H](c3ccccc3)C(c3ccc(Cl)cc3)=N2)nn(Cc2ccc(Cl)cn2)c1=O [Compound 207] |
| < 0.1 µM | COC(=O)c1ccc(Cn2nc(N3CC(c4ccccc4)C(c4ccc(Cl)cc4)=N3)n(C)c2=O)cc1 (stereo not shown) [Compound 168] |
| > 5 µM | CN1CCN(Cc2ccc(Cn3nc(N4C[C@H](c5ccccc5)C(c5ccc(Cl)cc5)=N4)n(CC(N)=O)c3=O)cc2)CC1 [Compound 149] |
| > 5 µM | Cn1c(N2CC(c3ccccc3)C(c3ccc(Cl)cc3)=N2)nn(CCc2ccc(C(=O)O)cc2)c1=O (stereo not shown) [Compound 195] |
| 0.1 to 1 µM | Cn1c(N2C[C@H](c3ccccc3)C(c3ccc(Cl)cc3)=N2)nn(Cc2ccc(CN3CCOCC3)cc2)c1=O [Compound 136, 3-[(4S)-3-(4-chlorophenyl)-4-phenyl-4,5-dihydro-1H-pyrazol-1-yl]-4-methyl-1-([4-[(morpholin-4-yl)methyl]phenyl]methyl)-4,5-dihydro-1H-1,2,4-triazol-5-one] |
